Test results published in ChEMBL document CHEMBL5727873, “Heterocyclic compounds and uses thereof” (2020).

Molecular target: T1, Histone deacetylase 8 (Homo sapiens, UniProt Q9BY41)
T1 sequence (Q9BY41 whole entry): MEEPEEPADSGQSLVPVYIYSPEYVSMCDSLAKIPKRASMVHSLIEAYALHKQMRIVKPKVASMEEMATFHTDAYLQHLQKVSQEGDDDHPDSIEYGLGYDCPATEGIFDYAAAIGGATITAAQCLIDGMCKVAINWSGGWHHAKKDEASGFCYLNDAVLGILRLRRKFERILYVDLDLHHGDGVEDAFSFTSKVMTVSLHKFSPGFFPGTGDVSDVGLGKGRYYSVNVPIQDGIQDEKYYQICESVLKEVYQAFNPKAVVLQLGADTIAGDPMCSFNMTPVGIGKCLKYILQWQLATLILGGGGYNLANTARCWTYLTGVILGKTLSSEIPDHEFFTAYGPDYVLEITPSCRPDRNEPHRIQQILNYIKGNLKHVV
Experiment: Enzymatic Assay: HDAC-Glo I/II Assay Kit was purchased from Promega Corporation (Madison, Wis.), including the following components: HDAC-Glo I/II Buffer (25 mM Tris buffer, pH 8.0, supplemented with 137 mM: NaCl, 2.7 mM KCl, 1% v/v Triton X-100 and 1 mM: MgCl2), luminogenic substrates Boc-GAK(Ac)-aminoluciferin (HDAC-Glo I/II substrate), proprietary developer reagent (containing trypsin). Assay:The HDAC8 reaction was performed at room temperature in white 384-well polystyrene, flat-bottom microtiter plate (Greiner Bio-one, Monroe, N.C.) in a final volume of 20 μL. Test compounds were first diluted serially in DMSO and 100 nL were transferred to the plate wells by Echo 550 (Labcyte, Sunnyvale, Calif.) before the addition of other reaction components. The final concentration of DMSO in the assay was 0.5%. The HDAC-Glo I/II assay reagent was prepared by rehydration of lyophilized HDAC-Glo I/II substrate in 10 mL. HDAC-Glo I/II assay buffer followed with the addition of 10 μL of developer reagent. 10 uL of 3 nM HDAC8 in the HDAC-Glo I/II assay buffer were first dispensed into the microliter plate containing the compounds and incubated at room temperature for 30 min. The reactions were initiated with the addition of 10 uL HDAC-Glo I/II assay reagent with Multidrop.

Row | SMILES | IC50
1 | CC1CCN(c2cccc3nn(C(Cc4ccccc4)C(=O)NO)cc23)CC1 (configuration not stated) | > 500 nM
2 | Cn1nc(C(Cc2ccccc2)C(=O)NO)c2ccc(Cl)cc21 (configuration not stated) | < 50 nM
